Assay results reported in patent US12527325B2, “Pesticidally active diazine-amide compounds” (SYNGENTA CROP PROTECTION AG, priority 2019, dated 2026).

Legend:
Format in all cases: in vivo
Plutella xylostella [1] = test: Example B5: Plutella xylostella (Diamond Back Moth); conditions: 192 h, application rate of 200 ppm, 24-well artificial diet, eggs, 8 days after infestation, read-out: control in at least one of the two categories (mortality or growth inhibition)
Method: Example B5: Plutella xylostella (Diamond Back Moth)
24-well microtiter plates with artificial diet were treated with aqueous test solutions prepared from 10′000 ppm DMSO stock solutions by pipetting. After drying, Plutella eggs were pipetted through a plastic stencil onto a gel blotting paper and the plate was closed with it. The samples were assessed for mortality and growth inhibition in comparison to untreated samples 8 days after infestation.

Chilo suppressalis = test: Example B4: Chilo suppressalis (Striped Rice Stemborer); conditions: 144 h, application rate of 200 ppm, artificial diet, L2 larvae, 6 days after infestation, read-out: control in at least one of the three categories (mortality, anti-feedant or growth inhibition)
Method: Example B4: Chilo suppressalis (Striped Rice Stemborer)
24-well microtiter plates with artificial diet were treated with aqueous test solutions prepared from 10′000 ppm DMSO stock solutions by pipetting. After drying, the plates were infested with L2 larvae (6-8 per well). The samples were assessed for mortality, anti-feeding effect, and growth inhibition in comparison to untreated samples 6 days after infestation. Control of Chilo suppressalis by a test sample is given when at least one of the categories mortality, anti-feedant effect, and growth inhibition is higher than the untreated sample.

Spodoptera littoralis = test: Example B9: Spodoptera littoralis (Egyptian Cotton Leaf Worm), cotton leaf disc spray; conditions: foliar, 72 h, application rate of 200 ppm, sprayed cotton leaf discs, L1 larvae, 3 days after infestation, read-out: control in at least one of the three categories (mortality, anti-feedant or growth inhibition)
Plutella xylostella [2] = test: Example B12: Plutella xylostella (Diamondback Moth), 96-well artificial diet; conditions: 216 h, application rate of 500 ppm, eggs, 9 days after infestation
Method: Example B12: Plutella xylostella (Diamondback Moth)
96-well microtiter plates containing artificial diet were treated with aqueous test solutions, prepared from 10′000 ppm DMSO stock solutions, by a liquid handling robot. After drying, eggs (˜30 per well) were infested onto a netted lid which was suspended above the diet. The eggs hatch and L1 larvae move down to the diet. The samples were assessed for mortality 9 days after infestation.

Diabrotica balteata = test: Example B1: Diabrotica balteata (Corn Root Worm); conditions: 96 h, application rate of 200 ppm, sprayed maize sprouts, L2 larvae, 4 days after infestation, read-out: control in at least one of the two categories (mortality or growth inhibition)
Method: Example B1: Diabrotica balteata (Corn Root Worm)
Maize sprouts placed onto an agar layer in 24-well microtiter plates were treated with aqueous test solutions prepared from 10′000 ppm DMSO stock solutions by spraying. After drying, the plates were infested with L2 larvae (6 to 10 per well). The samples were assessed for mortality and growth inhibition in comparison to untreated samples 4 days after infestation.

CC(NC(=O)c1cc(C(F)(F)F)cc(S(=O)(=O)C(F)(F)F)c1)c1nccnc1-c1ncc(C2CC2)cn1 (stereo not shown) [P11, N-[1-[3-(5-cyclopropylpyrimidin-2-yl)pyrazin-2-yl]ethyl]-3-(trifluoromethyl)-5-(trifluoromethylsulfonyl) benzamide]
≥ 80%: percent control (mortality or growth inhibition) at 200 ppm (Plutella xylostella [1]) | percent control (mortality, anti-feedant effect or growth inhibition) at 200 ppm (Chilo suppressalis) | percent control (mortality, anti-feedant effect or growth inhibition) at 200 ppm (Spodoptera littoralis) | mortality at 500 ppm (Plutella xylostella [2])

CC(NC(=O)c1cc(C(F)(F)F)cc(C2(C#N)CC2)c1)c1nccnc1-c1ccc(Cl)cn1 (stereo not shown) [P17, N-[1-[3-(5-chloro-2-pyridyl)pyrazin-2-yl]ethyl]-3-(1-cyanocyclopropyl)-5-(trifluoromethyl)benzamide]
≥ 80%: percent control (mortality or growth inhibition) at 200 ppm (Plutella xylostella [1]) | percent control (mortality, anti-feedant effect or growth inhibition) at 200 ppm (Chilo suppressalis) | percent control (mortality, anti-feedant effect or growth inhibition) at 200 ppm (Spodoptera littoralis) | mortality at 500 ppm (Plutella xylostella [2]) | percent control (mortality or growth inhibition) at 200 ppm (Diabrotica balteata)

CC(NC(=O)c1cc(C(F)(F)F)cc(C2(C#N)CC2)c1)c1nccnc1-c1ccc(Br)cn1 (stereo not shown) [P24, N-[1-[3-(5-bromo-2-pyridyl)pyrazin-2-yl]ethyl]-3-(1-cyanocyclopropyl)-5-(trifluoromethyl)benzamide]
≥ 80%: percent control (mortality or growth inhibition) at 200 ppm (Plutella xylostella [1]) | percent control (mortality, anti-feedant effect or growth inhibition) at 200 ppm (Chilo suppressalis) | percent control (mortality, anti-feedant effect or growth inhibition) at 200 ppm (Spodoptera littoralis) | mortality at 500 ppm (Plutella xylostella [2]) | percent control (mortality or growth inhibition) at 200 ppm (Diabrotica balteata)

CC(NC(=O)c1cc(C2CC2)cc(C(F)(F)F)c1)c1nccnc1-c1ccccn1 (stereo not shown) [P33, 3-cyclopropyl-N-[1-[3-(2-pyridyl)pyrazin-2-yl]ethyl]-5-(trifluoromethyl)benzamide]
≥ 80%: percent control (mortality or growth inhibition) at 200 ppm (Plutella xylostella [1]) | percent control (mortality, anti-feedant effect or growth inhibition) at 200 ppm (Chilo suppressalis) | mortality at 500 ppm (Plutella xylostella [2]) | percent control (mortality or growth inhibition) at 200 ppm (Diabrotica balteata)

CC(NC(=O)c1cc(C(F)(F)F)nc(C2(C#N)CC2)c1)c1nccnc1-c1ncc(C2CC2)cn1 (stereo not shown) [P36, 2-(1-cyanocyclopropyl)-N-[1-[3-(5-cyclopropylpyrimidin-2-yl)pyrazin-2-yl]ethyl]-6-(trifluoromethyl)pyridine-4-carboxamide]
≥ 80%: percent control (mortality or growth inhibition) at 200 ppm (Plutella xylostella [1]) | percent control (mortality, anti-feedant effect or growth inhibition) at 200 ppm (Chilo suppressalis) | percent control (mortality, anti-feedant effect or growth inhibition) at 200 ppm (Spodoptera littoralis) | mortality at 500 ppm (Plutella xylostella [2]) | percent control (mortality or growth inhibition) at 200 ppm (Diabrotica balteata)

CC(NC(=O)c1cc(C2CC2)cc(C(F)(F)F)c1)c1nccnc1-c1ncc(OC(F)F)cn1 (stereo not shown) [P34, 3-cyclopropyl-N-[1-[3-[5-(difluoromethoxy)pyrimidin-2-yl]pyrazin-2-yl]ethyl]-5-(trifluoromethyl)benzamide]
≥ 80%: percent control (mortality or growth inhibition) at 200 ppm (Plutella xylostella [1]) | percent control (mortality, anti-feedant effect or growth inhibition) at 200 ppm (Chilo suppressalis) | percent control (mortality, anti-feedant effect or growth inhibition) at 200 ppm (Spodoptera littoralis) | mortality at 500 ppm (Plutella xylostella [2]) | percent control (mortality or growth inhibition) at 200 ppm (Diabrotica balteata)

CC(NC(=O)c1cc(C(F)(F)F)nc(C2(C#N)CC2)c1)c1nccnc1-c1ccc(Cl)cn1 (stereo not shown) [P16, N-[1-[3-(5-chloro-2-pyridyl)pyrazin-2-yl]ethyl]-2-(1-cyanocyclopropyl)-6-(trifluoromethyl)pyridine-4-carboxamide]
≥ 80%: percent control (mortality or growth inhibition) at 200 ppm (Plutella xylostella [1]) | percent control (mortality, anti-feedant effect or growth inhibition) at 200 ppm (Chilo suppressalis) | percent control (mortality, anti-feedant effect or growth inhibition) at 200 ppm (Spodoptera littoralis) | mortality at 500 ppm (Plutella xylostella [2]) | percent control (mortality or growth inhibition) at 200 ppm (Diabrotica balteata)

CC(NC(=O)c1cc(C2CC2)cc(C(F)(F)F)c1)c1nccnc1-c1ccc(Cl)cn1 (stereo not shown) [P18, N-[1-[3-(5-chloro-2-pyridyl)pyrazin-2-yl]ethyl]-3-cyclopropyl-5-(trifluoromethyl)benzamide]
≥ 80%: percent control (mortality or growth inhibition) at 200 ppm (Plutella xylostella [1]) | percent control (mortality, anti-feedant effect or growth inhibition) at 200 ppm (Chilo suppressalis) | mortality at 500 ppm (Plutella xylostella [2])

CC(NC(=O)c1cc(C2CC2)cc(C(F)(F)F)c1)c1nccnc1-c1ncc(C2CC2)cn1 (stereo not shown) [P35, 3-cyclopropyl-N-[1-[3-(5-cyclopropylpyrimidin-2-yl)pyrazin-2-yl]ethyl]-5-(trifluoromethyl)benzamide]
≥ 80%: percent control (mortality or growth inhibition) at 200 ppm (Plutella xylostella [1]) | percent control (mortality, anti-feedant effect or growth inhibition) at 200 ppm (Chilo suppressalis) | percent control (mortality, anti-feedant effect or growth inhibition) at 200 ppm (Spodoptera littoralis) | mortality at 500 ppm (Plutella xylostella [2]) | percent control (mortality or growth inhibition) at 200 ppm (Diabrotica balteata)

CC(NC(=O)c1cc(C(F)(F)F)nc(C2(C#N)CC2)c1)c1nccnc1-c1ccc(Br)cn1 (stereo not shown) [P28, N-[1-[3-(5-bromo-2-pyridyl)pyrazin-2-yl]ethyl]-2-(1-cyanocyclopropyl)-6-(trifluoromethyl)pyridine-4-carboxamide]
≥ 80%: percent control (mortality or growth inhibition) at 200 ppm (Plutella xylostella [1]) | percent control (mortality, anti-feedant effect or growth inhibition) at 200 ppm (Chilo suppressalis) | percent control (mortality, anti-feedant effect or growth inhibition) at 200 ppm (Spodoptera littoralis) | mortality at 500 ppm (Plutella xylostella [2]) | percent control (mortality or growth inhibition) at 200 ppm (Diabrotica balteata)

CC(NC(=O)c1cc(C(F)(F)F)cc(S(=O)(=O)C(F)(F)F)c1)c1nccnc1-c1ccccn1 (stereo not shown) [P13, N-[1-[3-(2-pyridyl)pyrazin-2-yl]ethyl]-3-(trifluoromethyl)-5-(trifluoromethylsulfonyl) benzamide]
≥ 80%: percent control (mortality or growth inhibition) at 200 ppm (Plutella xylostella [1]) | percent control (mortality, anti-feedant effect or growth inhibition) at 200 ppm (Chilo suppressalis) | percent control (mortality, anti-feedant effect or growth inhibition) at 200 ppm (Spodoptera littoralis) | mortality at 500 ppm (Plutella xylostella [2]) | percent control (mortality or growth inhibition) at 200 ppm (Diabrotica balteata)

CC(NC(=O)c1cc(C(F)(F)F)nc(C2(C#N)CC2)c1)c1nccnc1-c1ccc(F)cn1 (stereo not shown) [P27, 2-(1-cyanocyclopropyl)-N-[1-[3-(5-fluoro-2-pyridyl)pyrazin-2-yl]ethyl]-6-(trifluoromethyl)pyridine-4-carboxamide]
≥ 80%: percent control (mortality or growth inhibition) at 200 ppm (Plutella xylostella [1]) | percent control (mortality, anti-feedant effect or growth inhibition) at 200 ppm (Chilo suppressalis) | mortality at 500 ppm (Plutella xylostella [2])

CC(NC(=O)c1cc(C(F)(F)F)cc(S(=O)(=O)C(F)(F)F)c1)c1nccnc1-c1ccc(F)cn1 (stereo not shown) [P12, N-[1-[3-(5-fluoro-2-pyridyl)pyrazin-2-yl]ethyl]-3-(trifluoromethyl)-5-(trifluoromethylsulfonyl) benzamide]
≥ 80%: percent control (mortality, anti-feedant effect or growth inhibition) at 200 ppm (Chilo suppressalis) | mortality at 500 ppm (Plutella xylostella [2])

CC(NC(=O)c1cc(C(F)(F)F)cc(C(F)(F)C2CC2)c1)c1nccnc1-c1ccc(F)cn1 (stereo not shown) [P38, 3-[cyclopropyl (difluoro)methyl]-N-[1-[3-(5-fluoro-2-pyridyl)pyrazin-2-yl]ethyl]-5-(trifluoromethyl)benzamide]
≥ 80%: percent control (mortality or growth inhibition) at 200 ppm (Plutella xylostella [1]) | mortality at 500 ppm (Plutella xylostella [2])
